From ChEMBL document CHEMBL4265961, “Efficient optimization of pyrazolo[3,4-d]pyrimidines derivatives as c-Src kinase inhibitors in neuroblastoma treatment” (Bioorg Med Chem Lett, 2018)
In brackets after ≈: the same amount, converted by molar mass. Activity calls are given as the source filed them. The calls are words filed in the database; no cut-off is given here.

Key:
[1] = Metabolic stability in human liver microsomes after 60 mins in presence of NADPH by UV/LC-MS analysis; format: ADME, microsome; settings: read-out: Stability
[2] = Apparent permeability of the compound after 5 hrs by PAMPA; format: ADME
[3] = Aqueous solubility in water at 1 mg after 24 hrs at 20 degC by UV/LC-MS analysis; format: physicochemical
SH-SY5Y [4] = test: Antiproliferative activity against human SH-SY5Y cells at 1 to 10 uM after 72 hrs by nucleo cell counting method; format: functional, cell-based
SH-SY5Y [5] = test: Antiproliferative activity against human SH-SY5Y cells after 72 hrs by nucleo cell counting method
SH-SY5Y [6] = test: Cell cycle arrest in human SH-SY5Y cells assessed as accumulation at G1 phase after 48 hrs by propidium iodide staining based flow cytometry; format: functional

Row | SMILES | remaining at 1 h [1] [%] | Papp at 5 h [2] [×10⁻⁶ cm/s] | IC50 (SH-SY5Y [5]) [µM] | solubility at 24 h [3] [µg/mL] | Activity (SH-SY5Y [4]) | Activity (SH-SY5Y [6])
1 | CC(Cn1ncc2c(Nc3cc(O)ccc3Cl)nc(NCCO)nc21)c1ccccc1 (stereo not drawn) | 97.9 | 0.1 | – | 0.103 (≈ 0.235 µM) | – | –
2 | CC(Cn1ncc2c(Nc3cc(O)ccc3Cl)nc(SCCN3CCOCC3)nc21)c1ccccc1 (stereo not drawn) | 97.9 | 11.2 | – | 0.031 (≈ 0.059 µM) | – | –
3 | CC(Cn1ncc2c(Nc3cc(O)ccc3Cl)nc(NCCN)nc21)c1ccccc1 (stereo not drawn) | 98.4 | 2.2 | – | 0.1 (≈ 0.228 µM) | – | –
4 | CC(Cn1ncc2c(Nc3cccc(O)c3)nc(SCCN3CCOCC3)nc21)c1ccccc1 (stereo not drawn) | 99 | 6.81 | – | 0.1 (≈ 0.204 µM) | – | –
5 | Oc1ccc(Cl)c(Nc2ncnc3c2cnn3CC(Cl)c2ccccc2)c1 (stereo not drawn) | 86.3 | 4.39 | – | 0.053 (≈ 0.132 µM) | – | –
6 | Oc1ccc(Cl)c(Nc2nc(SCCN3CCOCC3)nc3c2cnn3CC(Cl)c2ccccc2)c1 (stereo not drawn) | 96.9 | 9.74 | 6.6 | – | Active | –
7 | CC(Cn1ncc2c(Nc3cccc(O)c3)nc(NCCO)nc21)c1ccccc1 (stereo not drawn) | 99.4 | 0.2 | – | 134 (≈ 332 µM) | – | –
8 | OCCNc1nc(Nc2cc(O)ccc2Cl)c2cnn(CC(Cl)c3ccccc3)c2n1 (stereo not drawn) | 97.2 | 2.7 | 3.1 | 0.042 (≈ 0.0914 µM) | Active | Dose-dependent effect

More lines, main results first:

Row | remaining at 1 h [1] [%] | Papp at 5 h [2] [×10⁻⁶ cm/s] | IC50 (SH-SY5Y [5]) [µM] | SMILES | solubility at 24 h [3] [µg/mL] | Activity (SH-SY5Y [4]) | Activity (SH-SY5Y [6])
9 | 96.4 | 3.23 | – | CSc1nc(Nc2cc(O)ccc2Cl)c2cnn(CC(Cl)c3ccccc3)c2n1 (stereo not drawn) | – | – | –
10 | 93.5 | – | – | CC(C)Sc1nc(Nc2cccc(O)c2)c2cnn(CC(Cl)c3ccccc3)c2n1 (stereo not drawn) | – | – | –
11 | 92.7 | 8.33 | 6.7 | CSc1nc(Nc2cc(O)ccc2Cl)c2cnn(CC(C)c3ccccc3)c2n1 (stereo not drawn) | – | Active | –
12 | 98.7 | 4.44 | – | Oc1cccc(Nc2nc(SCCN3CCOCC3)nc3c2cnn3CC(Cl)c2ccccc2)c1 (stereo not drawn) | 0.197 (≈ 0.385 µM) | – | –
